Patent US20250177394A1, “COMBINATIONS OF CTPS1 AND BCL2 INHIBITORS FOR CANCER” (Step Pharma S.A.S., priority 2022, published 2025)

What was measured:
human CTPS1 versus CTPS2 = test: Human CTPS1 versus CTPS2 selectivity assessment by RapidFire/MS; format: biochemical; settings: fold selectivity between CTPS1 and CTPS2
Method: The enzyme inhibitory activities against each target isoform of interest were determined for compounds using an optimised RapidFire high-throughput mass spectrometry (RF/MS) assay format. RF/MS assays for both human CTPS1 and CTPS2 were performed in assay buffer consisting of 50 mM HEPES (Merck), 20 mM MgCl2, 5 mM KCl, 1 mM DTT, 0.01% Tween-20, pH to 8.0 accordingly. Human full-length active C-terminal FLAG-His-tag CTPS1 (UniProtKB—P17812, CTPS[1-591]-[…], SEQ ID NO: 1) was obtained from Proteros biostructures GmbH. Human full length active C-terminal FLAG-His-Avi tagged CTPS2 (UniProtKB—Q9NRF8, CTPS2 [1-586]-[…], SEQ ID NO: 2) was obtained from Harker Bio.
Human CTPS (1 or 2) protein was prepared in 1× assay buffer to the final working protein concentration required for the reaction. A 2 uL volume per well of 2×CTPS (1 or 2) protein was mixed with 40 nL of compound using acoustic (ECHO) delivery and incubated for 10 minutes at 25° C. […] Each mixture was incubated for an appropriate amount of time per isoform within the determined linear phase of the reaction at 25° C. […]
In all cases, the enzyme converts UTP to CTP. […] Readout for data analysis was calculated as the ratio between the peak area of the product CTP and the internal standard ^13C9-^15N3-CTP. […]
Fold selectivity between CTPS1 and CTPS2 was subsequently calculated according to the following equation: […]

[1] = system: human mantle cell lymphoma cell line; test: Western blot after exposure to CTPS1 inhibitor; format: cell-based; settings: 24 hour exposure versus control; GAPDH loading control
Method: Cells were incubated on ice for 40 minutes with lysis buffer then centrifuged at 11000 rpm for 30′. Total protein extracts were collected from supernatants and protein concentrations determined using a colorimetric assay. 30 μg of proteins were separated by SDS-PAGE using precast gels and transferred to membranes using the Trans-Blot Turbo system. Membranes were blocked for 1 hour in a 5% dry milk, TBS-Tween20 solution and incubated with primary antibodies overnight at 4° C. Membranes were incubated for at least 1 hour with secondary antibodies, either goat anti-mouse or goat anti-rabbit conjugated with peroxidase. Chemiluminescence was determined using the Clarity Western ECL Substrate on the Fusion FX imaging system.

human CTPS1 = human CTPS1 (Homo sapiens (Human), UniProt P17812); test: Human CTPS1 enzyme inhibition, ADP-Glo Max assay; format: biochemical; settings: Human CTPS1 Enzyme Inhibition data
Method: The enzyme inhibitory activities of compounds CTPS1-IA and CTPS1-IB against CTPS1 were determined using the ADP-Glo™ Max assay (Promega, UK).
Assays for human CTPS1 were performed in 1× assay buffer containing 50 mM Tris, 10 mM MgCl2, 0.01% Tween-20, pH to 8.0 accordingly. Finally, immediately before use, L-cysteine was added to the 1× assay buffer to a final concentration of 2 mM. All reagents are from Sigma-Aldrich unless specified otherwise. Human full length active C-terminal FLAG-His8-tag CTPS1 (UniProtKB—P17812, CTPS[1-591]-[…], SEQ ID NO: 1) was obtained from Proteros biostructures GmbH.
3× human CTPS1 protein was prepared in 1× assay buffer to the final working protein concentration required for the reaction. […] The enzymatic reaction was then initiated by addition of a 2 uL per well volume of a pre-mixed substrate mix (UltraPure ATP from ADP-Glo™ Max kit (0.31 mM), GTP (0.034 mM), UTP (0.48 mM) and L-glutamine (0.186 mM)) and the mixture was incubated for an appropriate amount of time within the determined linear phase of the reaction at 25° C. under sealed plate conditions with constant agitation at 500 revolutions per minute (rpm). ADP-Glo™ Max reagent was added for 60 minutes (6 μL per well) and subsequently ADP-Go™ Max development reagent was added for 60 minutes (12 uL per well) prior to signal detection in a microplate reader (EnVision® Multilabel Reader, Perkin Elmer). […]

[2] = system: human mantle cell lymphoma cell lines; test: RNA sequencing after exposure to CTPS1 inhibitor; format: cell-based; settings: 24 hour exposure at IC50 versus control
Method: RNA was obtained from cancer cell lines treated with CTPS1-IA at IC50 or control for 24 hours. Libraries were prepared from 10 ng total RNA. mRNA poly(A) tails were tagged with universal adapters, sample-specific barcodes and unique molecular identifiers using template switching reverse transcriptase. Barcoded cDNAs from multiple samples were then pooled, amplified and tagmented using a transposon-fragmentation approach which enriches for 3′ ends of cDNA. A library of 350-800 bp length was run on an Illumina NovaSeq 6000 using NovaSeq 6000 SP Reagent Kit 100 cycles (ref #20027464). Raw fastq pairs used for analysis matched the following criteria: the 16 bases of the first read correspond to 6 bases for a sample-specific barcode and 10 bases for a unique molecular identifier. The second read (58 bases) corresponds to the captured poly(A) RNAs sequence. Demultiplexing of these fastq pairs was performed to generate one single-end fastq for each of the 96 samples. fastq files were then aligned with bwa to reference mRNA sequences and the mitochondrial genomic sequence (UCSC). DGE profiles were generated by parsing the alignment files (.bam) and counting for each sample the number of unique molecular identifiers associated with each RefSeq gene. Reads aligned on multiple genes, containing more than one mismatch with the reference sequence, or containing a polyA pattern were discarded. […]

Chain of human CTPS1 (P17812 whole entry): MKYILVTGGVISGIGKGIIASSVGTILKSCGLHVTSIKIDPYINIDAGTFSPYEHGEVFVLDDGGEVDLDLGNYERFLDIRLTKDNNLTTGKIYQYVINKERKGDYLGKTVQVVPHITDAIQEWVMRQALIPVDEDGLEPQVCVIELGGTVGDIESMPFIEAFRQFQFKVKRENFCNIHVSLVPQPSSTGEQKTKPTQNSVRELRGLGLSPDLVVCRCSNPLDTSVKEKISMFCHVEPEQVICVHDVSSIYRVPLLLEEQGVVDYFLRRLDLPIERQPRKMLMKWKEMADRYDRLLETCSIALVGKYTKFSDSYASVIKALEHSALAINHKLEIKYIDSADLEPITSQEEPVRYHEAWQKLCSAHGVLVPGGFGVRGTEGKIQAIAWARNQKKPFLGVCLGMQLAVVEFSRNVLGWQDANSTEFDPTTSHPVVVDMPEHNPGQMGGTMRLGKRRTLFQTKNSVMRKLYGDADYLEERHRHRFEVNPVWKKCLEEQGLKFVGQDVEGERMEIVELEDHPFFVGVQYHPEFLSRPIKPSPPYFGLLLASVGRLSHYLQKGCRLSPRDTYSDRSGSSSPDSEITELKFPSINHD

Compound	Selectivity (human CTPS1 versus CTPS2)	BCL2 protein [1]	MCL1 protein [1]	IC50 (human CTPS1)	BCL2 transcripts [2]	MCL1 transcripts [2]
CCOc1cncc(-c2ccc(NC(=O)C3(c4ccnc(NS(=O)(=O)C5CC5)n4)CCOCC3)nc2)n1 [CTPS1-IA, 4-(2-(cyclopropanesulfonamido)pyrimidin-4-yl)-N-(5-(6-ethoxypyrazin-2-yl)pyridin-2-yl)tetrahydro-2H-pyran-4-carboxamide]	>60 fold	increase	decrease	≤ 100 nM	increase	decrease
CCOc1cncc(-c2ccc(NC(=O)C3(c4ccnc(NS(=O)(=O)CC)n4)CCOCC3)nc2)n1 [CTPS1-IB, N-(5-(6-ethoxypyrazin-2-yl)pyridin-2-yl)-4-(2-(ethylsulfonamido)pyrimidin-4-yl)tetrahydro-2H-pyran-4-carboxamide]	>60 fold			≤ 100 nM		
